Experimental data from ChEMBL document CHEMBL3526057 (Drug Metab Dispos, 2011).

Key:
Type in all cases: ADME
Details in all cases: recombinant enzyme, 1 h
Cytochrome P450 2C19 [1] = target: T1, Cytochrome P450 2C19 (Homo sapiens, UniProt P33261, F168L); assay: Activity of human recombinant CYP2C19 F168L mutant expressed in Saccharomyces cerevisiae BJ5457 assessed as omeprazole 5'-hydroxylation per pmol protein at 100 uM after 60 mins
Cytochrome P450 2C19 [2] = target: Cytochrome P450 2C19 (Homo sapiens, UniProt P33261, R150H); assay: Activity of human recombinant CYP2C19.11 mutant expressed in Saccharomyces cerevisiae BJ5457 assessed asomeprazole 5'-hydroxylation per pmol protein after 60 mins
[3] = Activity of human recombinant CYP2C19.6 mutant expressed in Saccharomyces cerevisiae BJ5457 assessed as omeprazole 5'-hydroxylation per pmol protein at 5 uM after 60 mins
Cytochrome P450 2C19 [4] = target: T2, Cytochrome P450 2C19 (Homo sapiens, UniProt P33261, R144H); assay: Activity of human recombinant CYP2C19.9 mutant expressed in Saccharomyces cerevisiae BJ5457 assessed as omeprazole 5'-hydroxylation per pmol protein at 100 uM after 60 mins
Cytochrome P450 2C19 [5] = target: T1, Cytochrome P450 2C19; assay: Activity of human recombinant CYP2C19 F168L mutant expressed in Saccharomyces cerevisiae BJ5457 assessed as omeprazole 5'-hydroxylation per pmol protein at 5 uM after 60 mins
Cytochrome P450 2C19 [6] = target: T3, Cytochrome P450 2C19 (Homo sapiens, UniProt P33261, R410C); assay: Activity of human recombinant CYP2C19.13 mutant expressed in Saccharomyces cerevisiae BJ5457 assessed as intrinisic clearance foromeprazole 5'-hydroxylation per pmol protein after 60 mins
Cytochrome P450 2C19 [7] = target: T4, Cytochrome P450 2C19 (Homo sapiens, UniProt P33261, M74T); assay: Activity of human recombinant CYP2C19 M74T mutant expressed in Saccharomyces cerevisiae BJ5457 assessed asomeprazole 5'-hydroxylation after 60 mins
Cytochrome P450 2C19 [8] = target: T5, Cytochrome P450 2C19 (Homo sapiens, UniProt P33261, E122A); assay: Activity of human recombinant CYP2C19 E122A mutant expressed in Saccharomyces cerevisiae BJ5457 assessed asomeprazole 5'-hydroxylation after 60 mins
Cytochrome P450 2C19 [9] = target: T6, Cytochrome P450 2C19 (Homo sapiens, UniProt P33261, L17P); assay: Activity of human recombinant CYP2C19.14 mutant expressed in Saccharomyces cerevisiae BJ5457 assessed as intrinisic clearance foromeprazole 5'-hydroxylation per pmol protein after 60 mins
Cytochrome P450 2C19 [10] = target: Cytochrome P450 2C19 (Homo sapiens, UniProt P33261, V331I/R442C); assay: Activity of human recombinant CYP2C19.16 mutant expressed in Saccharomyces cerevisiae BJ5457 assessed asomeprazole 5'-hydroxylation per pmol protein after 60 mins
Cytochrome P450 2C19 [11] = target: Cytochrome P450 2C19 (Homo sapiens, UniProt P33261, S51G); assay: Activity of human recombinant CYP2C19.19 mutant expressed in Saccharomyces cerevisiae BJ5457 assessed as omeprazole 5'-hydroxylation per pmol protein at 100 uM after 60 mins
Cytochrome P450 2C19 [12] = target: T6, Cytochrome P450 2C19; assay: Activity of human recombinant CYP2C19.14 mutant expressed in Saccharomyces cerevisiae BJ5457 assessed as omeprazole 5'-hydroxylation per pmol protein at 100 uM after 60 mins
Cytochrome P450 2C19 [13] = target: T5, Cytochrome P450 2C19; assay: Activity of human recombinant CYP2C19 E122A mutant expressed in Saccharomyces cerevisiae BJ5457 assessed as intrinisic clearance foromeprazole 5'-hydroxylation per pmol protein after 60 mins
Cytochrome P450 2C19 [14] = target: T2, Cytochrome P450 2C19; assay: Activity of human recombinant CYP2C19.9 mutant expressed in Saccharomyces cerevisiae BJ5457 assessed as omeprazole 5'-hydroxylation per pmol protein at 5 uM after 60 mins
Cytochrome P450 2C19 [15] = target: T4, Cytochrome P450 2C19; assay: Activity of human recombinant CYP2C19 M74T mutant expressed in Saccharomyces cerevisiae BJ5457 assessed asomeprazole 5'-hydroxylation per pmol protein after 60 mins
Cytochrome P450 2C19 [16] = target: T7, Cytochrome P450 2C19 (Homo sapiens, UniProt P33261, R329H); assay: Activity of human recombinant CYP2C19.18 mutant expressed in Saccharomyces cerevisiae BJ5457 assessed as omeprazole 5'-hydroxylation per pmol protein at 100 uM after 60 mins
Cytochrome P450 2C19 [17] = target: T7, Cytochrome P450 2C19; assay: Activity of human recombinant CYP2C19.18 mutant expressed in Saccharomyces cerevisiae BJ5457 assessed as intrinisic clearance foromeprazole 5'-hydroxylation per pmol protein after 60 mins
Cytochrome P450 2C19 [18] = target: T6, Cytochrome P450 2C19; assay: Activity of human recombinant CYP2C19.14 mutant expressed in Saccharomyces cerevisiae BJ5457 assessed asomeprazole 5'-hydroxylation per pmol protein after 60 mins
Cytochrome P450 2C19 [19] = target: T5, Cytochrome P450 2C19; assay: Activity of human recombinant CYP2C19 E122A mutant expressed in Saccharomyces cerevisiae BJ5457 assessed as omeprazole 5'-hydroxylation per pmol protein at 5 uM after 60 mins
Cytochrome P450 2C19 [20] = target: T8, Cytochrome P450 2C19 (Homo sapiens, UniProt P33261, P227L); assay: Activity of human recombinant CYP2C19.10 mutant expressed in Saccharomyces cerevisiae BJ5457 assessed asomeprazole 5'-hydroxylation per pmol protein after 60 mins
Cytochrome P450 2C19 [21] = target: T1, Cytochrome P450 2C19; assay: Activity of human recombinant CYP2C19 F168L mutant expressed in Saccharomyces cerevisiae BJ5457 assessed asomeprazole 5'-hydroxylation per pmol protein after 60 mins
Cytochrome P450 2C19 [22] = target: T9, Cytochrome P450 2C19 (Homo sapiens, UniProt P33261, E92D); assay: Activity of human recombinant CYP2C19 E92D mutant expressed in Saccharomyces cerevisiae BJ5457 assessed as omeprazole 5'-hydroxylation per pmol protein at 100 uM after 60 mins
Cytochrome P450 2C19 [23] = target: T8, Cytochrome P450 2C19; assay: Activity of human recombinant CYP2C19.10 mutant expressed in Saccharomyces cerevisiae BJ5457 assessed as omeprazole 5'-hydroxylation per pmol protein at 100 uM after 60 mins
Cytochrome P450 2C19 [24] = target: T10, Cytochrome P450 2C19 (Homo sapiens, UniProt P33261); assay: Activity of human recombinant CYP2C19.1A mutant expressed in Saccharomyces cerevisiae BJ5457 assessed as omeprazole 5'-hydroxylation per pmol protein at 100 uM after 60 mins
Cytochrome P450 2C19 [25] = target: Cytochrome P450 2C19 (Homo sapiens, UniProt P33261, R433W); assay: Activity of human recombinant CYP2C19.5B mutant expressed in Saccharomyces cerevisiae BJ5457 assessed as omeprazole 5'-hydroxylation per pmol protein at 100 uM after 60 mins
Cytochrome P450 2C19 [26] = target: T10, Cytochrome P450 2C19; assay: Activity of human recombinant CYP2C19.1A mutant expressed in Saccharomyces cerevisiae BJ5457 assessed as omeprazole 5'-hydroxylation per pmol protein at 5 uM after 60 mins
Cytochrome P450 2C19 [27] = target: Cytochrome P450 2C19 (Homo sapiens, UniProt P33261, A161P); assay: Activity of human recombinant CYP2C19 A161P mutant expressed in Saccharomyces cerevisiae BJ5457 assessed as intrinisic clearance foromeprazole 5'-hydroxylation per pmol protein after 60 mins
[28] = Activity of human recombinant CYP2C19.6 mutant expressed in Saccharomyces cerevisiae BJ5457 assessed as omeprazole 5'-hydroxylation per pmol protein at 100 uM after 60 mins
Cytochrome P450 2C19 [29] = target: T9, Cytochrome P450 2C19; assay: Activity of human recombinant CYP2C19 E92D mutant expressed in Saccharomyces cerevisiae BJ5457 assessed asomeprazole 5'-hydroxylation per pmol protein after 60 mins
Cytochrome P450 2C19 [30] = target: T3, Cytochrome P450 2C19; assay: Activity of human recombinant CYP2C19.13 mutant expressed in Saccharomyces cerevisiae BJ5457 assessed as omeprazole 5'-hydroxylation per pmol protein at 5 uM after 60 mins
Cytochrome P450 2C19 [31] = target: T4, Cytochrome P450 2C19; assay: Activity of human recombinant CYP2C19 M74T mutant expressed in Saccharomyces cerevisiae BJ5457 assessed as intrinisic clearance foromeprazole 5'-hydroxylation per pmol protein after 60 mins

Drug metabolism (Cytochrome P450 2C19 [1]): 5.48 pmol/min
Vmax (Cytochrome P450 2C19 [2]): 8.34 pmol/min
Drug metabolism [3]: metabolite_not_detected
Drug metabolism (Cytochrome P450 2C19 [4]): 5.48 pmol/min
Drug metabolism (Cytochrome P450 2C19 [5]): 3.08 pmol/min
CL (Cytochrome P450 2C19 [6]): 1.54 µL/min
Km (Cytochrome P450 2C19 [7]): 3.62 µM
Km (Cytochrome P450 2C19 [8]): 12.3 µM
CL (Cytochrome P450 2C19 [9]): 1.91 µL/min
Vmax (Cytochrome P450 2C19 [10]): 1.68 pmol/min
Drug metabolism (Cytochrome P450 2C19 [11]): 8.65 pmol/min
Drug metabolism (Cytochrome P450 2C19 [12]): 8.25 pmol/min
CL (Cytochrome P450 2C19 [13]): 0.4 µL/min
Drug metabolism (Cytochrome P450 2C19 [14]): 1.95 pmol/min
Vmax (Cytochrome P450 2C19 [15]): 4.03 pmol/min
Drug metabolism (Cytochrome P450 2C19 [16]): 4.83 pmol/min
CL (Cytochrome P450 2C19 [17]): 1.3 µL/min
Vmax (Cytochrome P450 2C19 [18]): 8.05 pmol/min
Drug metabolism (Cytochrome P450 2C19 [19]): 1.58 pmol/min
Vmax (Cytochrome P450 2C19 [20]): 5.35 pmol/min
Vmax (Cytochrome P450 2C19 [21]): 6.05 pmol/min
Drug metabolism (Cytochrome P450 2C19 [22]): 7.02 pmol/min
Drug metabolism (Cytochrome P450 2C19 [23]): 5 pmol/min
Drug metabolism (Cytochrome P450 2C19 [24]): 5.87 pmol/min
Drug metabolism (Cytochrome P450 2C19 [25]): metabolite_not_detected
Drug metabolism (Cytochrome P450 2C19 [26]): 2.75 pmol/min
CL (Cytochrome P450 2C19 [27]): 0.24 µL/min
Drug metabolism [28]: metabolite_not_detected
Vmax (Cytochrome P450 2C19 [29]): 6.93 pmol/min
Drug metabolism (Cytochrome P450 2C19 [30]): 3.03 pmol/min
CL (Cytochrome P450 2C19 [31]): 1.11 µL/min
Structure (SMILES): COc1ccc2[nH]c([S+]([O-])Cc3ncc(C)c(OC)c3C)nc2c1 (stereo unspecified) [OMEPRAZOLE]
